Consider 28 compounds from patent publication US11613531B2, “Inhibitors of RHO associated coiled-coil containing protein kinase” (Kadmon Corporation, LLC, priority 2017, dated 2023).

Where two headings read alike, the source gives them in different places. A value given as a limit tells only on which side of the number the result lay.

One may read the IC50 as the concentration at which inhibition is half-maximal.

In experiment [1] the target is Recombinant ROCK2 (amino acids 1-552) (Homo sapiens (Human), UniProt O75116). The experiment can be described thus: Z′-Lyte kinase assay, ROCK2. It counts as biochemical. The conditions noted are these: for inhibition at 1 µM: 1 μM compound, read-out: ROCK2 % inh. @ [conc]. On the procedure: Determination of Compound's ROCK Inhibitory Activity In Vitro (Z'Lyte Assay).
Recombinant ROCK2 (amino acids 1-552), sequence (O75116 1-552): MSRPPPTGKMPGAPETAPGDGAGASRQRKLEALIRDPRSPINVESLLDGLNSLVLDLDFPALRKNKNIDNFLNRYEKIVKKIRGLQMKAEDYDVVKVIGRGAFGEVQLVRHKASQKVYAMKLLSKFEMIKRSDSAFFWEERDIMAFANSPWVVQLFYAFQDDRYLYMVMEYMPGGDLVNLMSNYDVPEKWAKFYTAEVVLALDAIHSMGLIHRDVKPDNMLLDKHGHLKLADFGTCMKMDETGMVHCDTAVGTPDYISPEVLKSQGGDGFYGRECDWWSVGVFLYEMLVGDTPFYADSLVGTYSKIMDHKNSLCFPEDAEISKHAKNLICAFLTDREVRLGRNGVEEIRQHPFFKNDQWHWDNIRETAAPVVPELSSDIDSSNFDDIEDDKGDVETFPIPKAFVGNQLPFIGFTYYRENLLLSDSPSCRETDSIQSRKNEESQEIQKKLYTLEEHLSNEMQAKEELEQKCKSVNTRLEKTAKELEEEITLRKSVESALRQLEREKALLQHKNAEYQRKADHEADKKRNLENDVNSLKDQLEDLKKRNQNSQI
Recombinant ROCK1 (amino acids 1-535) and ROCK2 (amino acids 1-552) proteins were purchased from ThermoFisher Scientific. Compound's activities were measured by Z′-lyte kinase kit (ThermoFisher Scientific) and IC50 was calculated
In vitro activities for the compounds were measured with Z′-lyte kinase kit (ThermoFisher Scientific). The percent inhibition rate was calculated by normalizing the kinase activity value obtained with 1 μM compound treatment against DMSO control value and then applied to the formula, [1-(compound/DMSO)]×100%. IC50s were calculated using the nonlinear regression curve fit function of the GraphPad Prism software with kinase activities data measured with 9 points 2-fold serial dilution of compounds treatment. In cell pMLC IC50s were calculated with data obtained from A7R5 cell experiments. A7R5 cells were treated with 9 points 2-fold serial dilution of compounds and ppMlc (T18/S19) levels were determined to calculate cellular IC50 values of the compounds using the nonlinear regression curve fit function of the GraphPad Prism software. NIH3T3 cells stably expressing ACTA2-promoter-driven-luciferase were applied to measure ROCK compounds functional IC50s in cells. Cells were plated in 96 well plates to confluence and treated with 9 points serial dilution of compounds in combination with TGFβ1 for 24 hr. Luciferase activities were measured and compound's IC50s were calculated using the nonlinear regression curve fit function of the GraphPad Prism software.

Experiment [2] deals with ppMlc (T18/S19) levels in A7R5 cells. The experiment can be described thus: A7R5 in-cell ELISA (pMLC). The conditions noted are these: Rattus norvegicus, A7R5, A7R5 cells; for inhibition at 10 µM: 10 μM compound; for inhibition at 10 µM / inhibition at 1 µM: read-out: pMLC % inh A7R5 @ [conc]; for IC50: ppMlc (T18/S19); for inhibition at 1 µM: 1 μM compound. It counts as cell-based, Rat. In a few lines: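 Cellular IC50 came from a nonlinear regression fit of ppMlc (T18/S19) signal, read by colorimetric in-cell ELISA on fixed cells. Rat A7R5 aortic smooth muscle cells had been exposed for 90 min to compounds in 9-point 2-fold serial dilution, 24 h after seeding.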
(In general: An ELISA detects its analyte on a solid surface through an enzyme-linked reagent.)

Where [3] appears, read: 9 points 2-fold serial dilution.

Turning to `c1cc2[nH]ncc2cc1Nc1nc(N2CCCNCC2)nc2c1CCCC2` [Example 9, 2-(1,4-diazepan-1-yl)-N-(1H-indazol-5-yl)-5,6,7,8-tetrahydroquinazolin-4-amine], the inhibition at 1 µM in experiment [1] worked out at 98.7%. In experiment [2], the inhibition at 10 µM was found to be 93.5% and the IC50 came to 1200 nM.

`c1cc2[nH]ncc2cc1Nc1nc(N2CCCNCC2)nc2c1CSC2` [Example 12, 2-(1,4-diazepan-1-yl)-N-(1H-indazol-5-yl)-5,7-dihydrothieno[3,4-d]pyrimidin-4-amine]: in experiment [1], the inhibition at 1 µM amounted to 97.3%. Further, in experiment [2], the inhibition at 10 µM was determined as 95% and the IC50 was 839 nM.

Take `Cc1nc(N2CCNC(C)C2)nc(Nc2ccc3[nH]ncc3c2)c1C` (stereo not drawn) [Example 13, N-(5,6-dimethyl-2-(3-methylpiperazin-1-yl)pyrimidin-4-yl)-1H-indazol-5-amine]: the inhibition at 1 µM in experiment [1] came out at 58.1%. Also, in experiment [2], the inhibition at 10 µM was determined as 51.1% and the IC50 was 1490 nM.

As to `CCC1CN(c2nc(C)c(C)c(Nc3ccc4[nH]ncc4c3)n2)CCN1` (stereo not drawn) [Example 14, N-(2-(3-ethylpiperazin-1-yl)-5,6-dimethylpyrimidin-4-yl)-1H-indazol-5-amine], the inhibition at 1 µM in experiment [1] stood at 33.3%. For the same compound, the inhibition at 10 µM in experiment [2] was found to be 48.9%.

Consider `Cc1nc(N2CCNC(C(C)C)C2)nc(Nc2ccc3[nH]ncc3c2)c1C` (stereo not drawn) [Example 15, N-(2-(3-isopropylpiperazin-1-yl)-5,6-dimethylpyrimidin-4-yl)-1H-indazol-5-amine], for which the inhibition at 1 µM in experiment [1] was determined as 8%. Further, the inhibition at 10 µM in experiment [2] amounted to 26.4%.

For `Cc1nc(N2CCNC(C(C)C)CC2)nc(Nc2ccc3[nH]ncc3c2)c1C` (stereo not drawn) [Example 19, N-(2-(5-isopropyl-1,4-diazepan-1-yl)-5,6-dimethylpyrimidin-4-yl)-1H-indazol-5-amine], the inhibition at 1 µM in experiment [1] was 4.6%. Further, the inhibition at 10 µM in experiment [2] came out at 31.8%.

On to `Cc1nc(N2CCCNC(C)C2)nc(Nc2ccc3[nH]ncc3c2)c1C` (stereo not drawn) [Example 22, N-(5,6-dimethyl-2-(3-methyl-1,4-diazepan-1-yl)pyrimidin-4-yl)-1H-indazol-5-amine], for which, in experiment [1], the inhibition at 1 µM came to 76.5%. In experiment [2], the inhibition at 10 µM worked out at 54.2% and the IC50 came out at 1390 nM.

On to `CCC1CCN(c2nc(C)c(C)c(Nc3ccc4[nH]ncc4c3)n2)CCN1` (stereo not drawn) [Example 23, N-(2-(5-ethyl-1,4-diazepan-1-yl)-5,6-dimethylpyrimidin-4-yl)-1H-indazol-5-amine], for which the inhibition at 1 µM in experiment [1] stood at 29.5%. Further, in experiment [2], the inhibition at 10 µM was 46.4%.

As for `Cc1nc(N2CCNC(C)CC2)nc(Nc2ccc3[nH]ncc3c2)c1C` (stereo not drawn) [Example 25, N-(5,6-dimethyl-2-(5-methyl-1,4-diazepan-1-yl)pyrimidin-4-yl)-1H-indazol-5-amine], the inhibition at 1 µM in experiment [1] was found to be 52.9%. Further, the inhibition at 10 µM in experiment [2] is 48.3%.

Take `CCC1CN(c2nc(C)c(C)c(Nc3ccc4[nH]ncc4c3)n2)CCCN1` (stereo not drawn) [Example 26, N-(2-(3-ethyl-1,4-diazepan-1-yl)-5,6-dimethylpyrimidin-4-yl)-1H-indazol-5-amine]: in experiment [1], the inhibition at 1 µM turned out to be 33.5%. In addition, the inhibition at 10 µM in experiment [2] was 39.9%.

Turning to `Cc1nc(N2CCNCC2C)nc(Nc2ccc3[nH]ncc3c2)c1C` (stereo not drawn) [Example 27, N-(5,6-dimethyl-2-(2-methylpiperazin-1-yl)pyrimidin-4-yl)-1H-indazol-5-amine], the inhibition at 1 µM in experiment [1] was 71.3%; in experiment [2], 16.8%.

Regarding `Cc1nc(N2CCNCC(C)C2)nc(Nc2ccc3[nH]ncc3c2)c1C` (stereo not drawn) [Example 28, N-(5,6-dimethyl-2-(6-methyl-1,4-diazepan-1-yl)pyrimidin-4-yl)-1H-indazol-5-amine], the inhibition at 1 µM in experiment [1] turned out to be 45%; in experiment [2] it was 11.8%.

With `COc1cnc(N2CCNCC2)nc1Nc1ccc2[nH]ncc2c1` [Example 30, N-(5-methoxy-2-(piperazin-1-yl)pyrimidin-4-yl)-1H-indazol-5-amine], in experiment [1], the inhibition at 1 µM is 90.6%. Further, in experiment [2], the inhibition at 10 µM was determined as 56.4% and the IC50 stood at 1120 nM.

Consider `COc1cnc(N2CCNC(C)C2)nc1Nc1ccc2[nH]ncc2c1` (stereo not drawn) [Example 31, N-(5-methoxy-2-(3-methylpiperazin-1-yl)pyrimidin-4-yl)-1H-indazol-5-amine], for which, in experiment [1], the inhibition at 1 µM turned out to be 78.1%. Further, in experiment [2], the inhibition at 10 µM was found to be 58% and the IC50 turned out to be 1850 nM.

Turning to `COc1cnc(N2CCCNC(C(C)C)C2)nc1Nc1ccc2[nH]ncc2c1` (stereo not drawn) [Example 32, N-(2-(3-isopropyl-1,4-diazepan-1-yl)-5-methoxypyrimidin-4-yl)-1H-indazol-5-amine], the inhibition at 1 µM in experiment [1] was 44.6%. Further, in experiment [2], the inhibition at 10 µM came out at 53.7% and the IC50 was 3950 nM.

`c1cc(Nc2ccc(-c3cn[nH]c3)cc2)nc(N2CCNCC2)n1` [Example 38, N-(4-(1H-pyrazol-4-yl)phenyl)-2-(piperazin-1-yl)pyrimidin-4-amine]: in experiment [1], the IC50 was found to be 451 nM and the inhibition at 1 µM was determined as 63.1%. For the same compound, in experiment [2], the inhibition at 1 µM came out at 9.2%.

As for `c1cc(Nc2ccc(-c3cnn[nH]3)cc2)nc(N2CCNCC2)n1` [Example 41, N-(4-(1H-1,2,3-triazol-5-yl)phenyl)-2-(piperazin-1-yl)pyrimidin-4-amine], the IC50 in experiment [1] (setting [3]) was over 10000 nM. In addition, in experiment [2], the inhibition at 10 µM was 9.96%.

`c1cc(Nc2ccc(-c3cn[nH]c3)cc2)nc(N2CCCNCC2)n1` [Example 44, N-(4-(1H-pyrazol-4-yl)phenyl)-2-(1,4-diazepan-1-yl)pyrimidin-4-amine]: the IC50 in experiment [1] came to 220 nM. Moreover, the inhibition at 1 µM in experiment [1] turned out to be 72.7%; in experiment [2], 13.2%.

On to `COc1cnc(N2CCNC(C(C)C)CC2)nc1Nc1ccc2[nH]ncc2c1` (stereo not drawn) [Example 47, N-(2-(5-isopropyl-1,4-diazepan-1-yl)-5-methoxypyrimidin-4-yl)-1H-indazol-5-amine], for which, in experiment [1], the inhibition at 1 µM was 33.1%. Further, the inhibition at 10 µM in experiment [2] came to 45.6%.

As to `CCC1CN(c2ncc(OC)c(Nc3ccc4[nH]ncc4c3)n2)CCN1` (stereo not drawn) [Example 49, N-(2-(3-ethylpiperazin-1-yl)-5-methoxypyrimidin-4-yl)-1H-indazol-5-amine], the inhibition at 1 µM in experiment [1] amounted to 50.6%. Further, the inhibition at 10 µM in experiment [2] stood at 46.3%.

On to `COc1cnc(N2CCNC(C(C)C)C2)nc1Nc1ccc2[nH]ncc2c1` (stereo not drawn) [Example 51, N-(2-(3-isopropylpiperazin-1-yl)-5-methoxypyrimidin-4-yl)-1H-indazol-5-amine], for which the inhibition at 1 µM in experiment [1] is 29.3%. For the same compound, in experiment [2], the inhibition at 10 µM came out at 39.4%.

As for `COc1cnc(N2CCNC(C)CC2)nc1Nc1ccc2[nH]ncc2c1` (stereo not drawn) [Example 53, N-(5-methoxy-2-(5-methyl-1,4-diazepan-1-yl)pyrimidin-4-yl)-1H-indazol-5-amine], the inhibition at 1 µM in experiment [1] is 74.5%. In addition, in experiment [2], the inhibition at 10 µM stood at 51.3% and the IC50 turned out to be 1720 nM.

In the case of `CCC1CCN(c2ncc(OC)c(Nc3ccc4[nH]ncc4c3)n2)CCN1` (stereo not drawn) [Example 54, N-(2-(5-ethyl-1,4-diazepan-1-yl)-5-methoxypyrimidin-4-yl)-1H-indazol-5-amine], in experiment [1], the inhibition at 1 µM turned out to be 58.5%. Moreover, in experiment [2], the inhibition at 10 µM turned out to be 50.1% and the IC50 was 1700 nM.

On to `COc1cnc(N2CCCNC(C)C2)nc1Nc1ccc2[nH]ncc2c1` (stereo not drawn) [Example 55, N-(5-methoxy-2-(3-methyl-1,4-diazepan-1-yl)pyrimidin-4-yl)-1H-indazol-5-amine], for which the inhibition at 1 µM in experiment [1] was 83.3%. Further, in experiment [2], the inhibition at 10 µM came out at 52.2% and the IC50 came out at 998 nM.

Turning to `COc1cnc(N2CCNCC(C)C2)nc1Nc1ccc2[nH]ncc2c1` (stereo not drawn) [Example 56, N-(5-methoxy-2-(6-methyl-1,4-diazepan-1-yl)pyrimidin-4-yl)-1H-indazol-5-amine], the results for the inhibition at 1 µM in experiment [1] and in experiment [2] were 87.1% and 29%, respectively.

On to `c1cc(Nc2ccc3[nH]ncc3c2)nc(N2CCNC3(CC3)C2)n1` [Example 66, N-(2-(4,7-diazaspiro[2.5]octan-7-yl)pyrimidin-4-yl)-1H-indazol-5-amine], for which the inhibition at 1 µM was found to be 86.3% in experiment [1] and 17.5% in experiment [2]. Besides, the half-maximal inhibitory concentration (IC50) in experiment [1] (setting [3]) was found to be 380 nM.

`c1cc(Nc2ccc3[nH]ncc3c2)nc(N2CC3CCC2CN3)n1` (stereo not drawn) [Example 67, N-(2-(2,5-diazabicyclo[2.2.2]octan-2-yl)pyrimidin-4-yl)-1H-indazol-5-amine]: the figures for the inhibition at 1 µM in experiment [1] and in experiment [2] were 99.2% and 31.4%, respectively. The IC50 in experiment [1] (setting [3]) was found to be 45 nM; in experiment [2], 1360 nM.

Take `CC1CN(c2nccc(Nc3ccc4[nH]ncc4c3)n2)C(C)CN1` (stereo not drawn) [Example 68, N-(2-(2,5-dimethylpiperazin-1-yl)pyrimidin-4-yl)-1H-indazol-5-amine]: the half-maximal inhibitory concentration (IC50) in experiment [1] (setting [3]) worked out at 294 nM; in experiment [2], 1010 nM. For the same compound, the inhibition at 1 µM in experiment [2] is 35.4%.
